Values of other authors in PubChem BioAssay AID1259409 (Chemical Carcinogenesis Research Information System (CCRIS), 2018).

Tested on: rodent chemically induced tumor inhibition, incidence and multiplicity
Test: CCRIS tumor inhibitor studies
Conditions: Route [Inhibitor]: ORAL, Species: RAT, Promoter: NONE USED

CC1=C(/C=C/C(C)=C/C=C/C(C)=C/C(=O)NCCO)C(C)(C)CCC1
tumour outcome (control, treated, inhibition, significance) (Carcinogen: L-AZASERINE, 115-02-6, Dose [Inhibitor]: 2 MMOL/KG DIET DAILY FOR 336 D OUT OF 358 D STARTING 1 WK AFTER COMPLETION OF CARCINOGEN TREATMENT (STUDY DURATION: 66 W, Strain/Sex: WISTAR-LEWIS/FEMALE, Target Tissue: Type of Lesion: PANCREAS: ADENOMA, Dose [Carcinogen]: 10 MG/KG BW 1/WK FOR 15 WK): 50%, 13%, 74%, not significant | tumour outcome (control, treated, inhibition, significance) (Carcinogen: L-AZASERINE, 115-02-6, Dose [Inhibitor]: 2 MMOL/KG DIET DAILY FOR 336 D OUT OF 358 D STARTING 1 WK AFTER COMPLETION OF CARCINOGEN TREATMENT (STUDY DURATION: 66 W, Strain/Sex: WISTAR-LEWIS/FEMALE, Target Tissue: Type of Lesion: PANCREAS: CARCINOMA IN SITU, Dose [Carcinogen]: 10 MG/KG BW 1/WK FOR 15 WK): 8%, 13%, -63%, not significant | tumour outcome (control, treated, inhibition, significance) (Carcinogen: L-AZASERINE, 115-02-6, Dose [Inhibitor]: 2 MMOL/KG DIET DAILY FOR 336 D OUT OF 358 D STARTING 1 WK AFTER COMPLETION OF CARCINOGEN TREATMENT (STUDY DURATION: 66 W, Strain/Sex: WISTAR-LEWIS/FEMALE, Target Tissue: Type of Lesion: PANCREAS: CARCINOMA, Dose [Carcinogen]: 10 MG/KG BW 1/WK FOR 15 WK STARTING 15 WK PRIOR TO AGENT TREATMENT): ?/24 (13%), ?/24 (0%), 100%, not significant | tumour outcome (control, treated, inhibition, significance) (Carcinogen: L-AZASERINE, 115-02-6, Dose [Inhibitor]: 2 MMOL/KG DIET DAILY FOR 336 D OUT OF 358 D STARTING 1 WK AFTER COMPLETION OF CARCINOGEN TREATMENT (STUDY DURATION: 66 W, Strain/Sex: WISTAR-LEWIS/MALE, Target Tissue: Type of Lesion: PANCREAS: ADENOMA, Dose [Carcinogen]: 10 MG/KG BW 1/WK FOR 15 WK): 25%, 28%, -12%, not significant | tumour outcome (control, treated, inhibition, significance) (Carcinogen: L-AZASERINE, 115-02-6, Dose [Inhibitor]: 2 MMOL/KG DIET DAILY FOR 336 D OUT OF 358 D STARTING 1 WK AFTER COMPLETION OF CARCINOGEN TREATMENT (STUDY DURATION: 66 W, Strain/Sex: WISTAR-LEWIS/MALE, Target Tissue: Type of Lesion: PANCREAS: CARCINOMA IN SITU, Dose [Carcinogen]: 10 MG/KG BW 1/WK FOR 15 WK): 29%, 44%, -52%, not significant | tumour outcome (control, treated, inhibition, significance) (Carcinogen: L-AZASERINE, 115-02-6, Dose [Inhibitor]: 2 MMOL/KG DIET DAILY FOR 336 D OUT OF 358 D STARTING 1 WK AFTER COMPLETION OF CARCINOGEN TREATMENT (STUDY DURATION: 66 W, Strain/Sex: WISTAR-LEWIS/MALE, Target Tissue: Type of Lesion: PANCREAS: CARCINOMA, Dose [Carcinogen]: 10 MG/KG BW 1/WK FOR 15 WK): 46%, 4%, 91%, p<0.05 | tumour outcome (control, treated, inhibition, significance) (Carcinogen: L-AZASERINE, 115-02-6, Dose [Inhibitor]: 2 MMOL/KG DIET DAILY FOR 336 D OUT OF 358 D STARTING 1 WK AFTER COMPLETION OF CARCINOGEN TREATMENT (STUDY DURATION: 66 W, Strain/Sex: WISTAR-LEWIS/MALE, Target Tissue: Type of Lesion: PANCREAS: NEOPLASM, Dose [Carcinogen]: 10 MG/KG BW 1/WK FOR 15 WK): 100%, 76%, 24%, not significant | tumour outcome (control, treated, inhibition, significance) (Carcinogen: N-(4-(5-NITRO-2-FURYL)-2-THIAZOLYL)FORMAMIDE, 24554-26-5, Dose [Inhibitor]: 343 MG/KG DIET DAILY FOR 39 WK STARTING ONE WK FOLLOWING THE TERMINATION OF CARCINOGEN ADMINISTRATION (STUDY DURATION: 5, Strain/Sex: F344/FEMALE, Target Tissue: Type of Lesion: URINARY BLADDER: CARCINOMA, Dose [Carcinogen]: 2 G/KG IN DIET DAILY FOR 10 WK): 105/200 (53%), 67/100 (67%), -26%, p 0.0167 | tumour outcome (control, treated, inhibition, significance) (Carcinogen: N-(4-(5-NITRO-2-FURYL)-2-THIAZOLYL)FORMAMIDE, 24554-26-5, Dose [Inhibitor]: 343 MG/KG/D IN DIET FOR 39 WK STARTING 1 WK POST CARCINOGEN TREATMENT (STUDY DURATION: 50 WK), Strain/Sex: F344/FEMALE, Target Tissue: Type of Lesion: URINARY BLADDER: CARCINOMA, Dose [Carcinogen]: 2 G/KG/D IN DIET FOR 10 WK): 105/200 (53%), 67/100 (67%), -26%, p 0.0167 | tumour outcome (control, treated, inhibition, significance) (Carcinogen: N-(4-(5-NITRO-2-FURYL)-2-THIAZOLYL)FORMAMIDE, 24554-26-5, Dose [Inhibitor]: 343 MG/KG/D IN DIET FOR 39 WK STARTING 1 WK POST CARCINOGEN TREATMENT (STUDY DURATION: 50 WK), Strain/Sex: F344/FEMALE, Target Tissue: Type of Lesion: URINARY BLADDER: PAPILLOMA, Dose [Carcinogen]: 2 G/KG/D IN DIET FOR 10 WK): 15/200 (7.5%), 24/100 (24%), -220%, p 0.00006 | tumour outcome (control, treated, inhibition, significance) (Carcinogen: N-(4-(5-NITRO-2-FURYL)-2-THIAZOLYL)FORMAMIDE, 24554-26-5, Dose [Inhibitor]: 686 MG/KG DIET DAILY FOR 39 WK STARTING ONE WK FOLLOWING THE TERMINATION OF CARCINOGEN ADMINISTRATION (STUDY DURATION: 5, Strain/Sex: F344/FEMALE, Target Tissue: Type of Lesion: URINARY BLADDER: CARCINOMA, Dose [Carcinogen]: 2 G/KG IN DIET DAILY FOR 10 WK): 105/200 (53%), 49/100 (49%), 8%, p 0.5657 | tumour outcome (control, treated, inhibition, significance) (Carcinogen: N-(4-(5-NITRO-2-FURYL)-2-THIAZOLYL)FORMAMIDE, 24554-26-5, Dose [Inhibitor]: 686 MG/KG DIET DAILY FOR 39 WK STARTING ONE WK FOLLOWING THE TERMINATION OF CARCINOGEN ADMINISTRATION (STUDY DURATION: 5, Strain/Sex: F344/FEMALE, Target Tissue: Type of Lesion: URINARY BLADDER: PAPILLOMA, Dose [Carcinogen]: 2 G/KG IN DIET DAILY FOR 10 WK): 15/200 (8%), 17/100 (17%), -113%, p 0.012
